PMC11642940, “A New Demand for Improved Selectivity and Potency of Cyanine Dyes as Antiproliferative Agents Against Colorectal Cancer Cells” (Molecules, 2024)
Read-outs that look alike come from different tables or passages of the source.

Assays:
[1] = system: normal human dermal fibroblasts (NHDF); experiment: MTT cell viability assay, NHDF; format: cell-based; conditions: Homo sapiens; NHDF, 72 h incubation, MTT, absence of light; read-out: IC50 NHDF
Experimental: (§4) The cell lines used in this study (Caco-2, MCF-7, PC-3, and NHDF) were obtained from the American Type Culture Collection (ATCC, Manassas, VA, USA) and cultured in 75 cm^2 culture flasks at 37 °C in a humidified atmosphere with 5% CO2 in a LEEC Culture Safe Precision CO2 Incubator. PC-3 cells were grown in Roswell Park Memorial Institute (RPMI) medium supplemented with 10% of inactivated Fetal Bovine Serum (FBS) and 1% of an antibiotic mixture (Sp; 10,000 U/mL of penicillin G and 100 mg/mL of streptomycin). MCF-7 and Caco-2 cell lines were both cultured using Dulbecco’s Modified Eagle Medium (DMEM). However, the medium for MCF-7 cells was complemented with 10% of inactivated FBS and 1% of antibiotic/antimycotic mixture (Ab; 10,000 U/mL of penicillin G, 100 mg/mL of streptomycin and 25 µg/mL of amphotericin B), and the medium for Caco-2 cells was supplemented with 20% of inactivated FBS and 1% of Sp. Finally, RPMI medium supplemented with 10% FBS, 2 mM of L-glutamine, 10 mM of 4-(2-hydroxyethyl)-1-piperazineethanesulfonic acid (HEPES), 1 mM of sodium pyruvate, and 1% of Ab was used to culture NHDF cells. The culture media were renewed every two to three days until near confluence was achieved. Then, cells were detached using a solution of 0.125 g/L of trypsin and 0.02 g/L of ethylenediaminetetracetic acid (EDTA), counted by the trypan blue method, resuspended, and adequately seeded to continue the culture in 75 cm^2 flasks or for the experiments described below. All manipulations were performed in a Labculture Class II A2 Biological Safety Cabinet.

[2] = MTT cell viability assay, NHDF; format: cell-based, human; conditions: human, normal human dermal fibroblasts (NHDF); 10 µM, 72 h, mean ± SD; read-out: cell viability percentage in relation to control, NHDF
Experimental: as §4

[3] = system: MCF-7 breast adenocarcinoma cells; experiment: MTT cell viability assay, MCF-7; conditions: for IC50 / viability at 10 µM: Homo sapiens, MCF7, 72 h; for viability at 10 µM: read-out: cell viability percentage in relation to control, MCF-7; for SI MCF-7 (selectivity index versus NHDF): MCF-7 versus NHDF, 72 h
Experimental: (§1) To evaluate the anticancer potential of monomethine cyanine dyes 1–12, a cell proliferation study was conducted using the 3-(4,5-dimethylthiazol-2-yl)-2,5-diphenyltetrazolium bromide (MTT) assay. For this preliminary evaluation, a concentration of 10 µM for each dye was tested, with the well-established chemotherapy agent 5-fluorouracil (5-FU) serving as a positive control. The assay included normal human dermal fibroblasts (NHDF) as non-tumor cells, alongside tumor cell lines from colorectal (Caco-2), prostate (PC-3), and breast (MCF-7) adenocarcinomas.
(§2) The cell lines used in this study (Caco-2, MCF-7, PC-3, and NHDF) were obtained from the American Type Culture Collection (ATCC, Manassas, VA, USA) and cultured in 75 cm^2 culture flasks at 37 °C in a humidified atmosphere with 5% CO2 in a LEEC Culture Safe Precision CO2 Incubator. PC-3 cells were grown in Roswell Park Memorial Institute (RPMI) medium supplemented with 10% of inactivated Fetal Bovine Serum (FBS) and 1% of an antibiotic mixture (Sp; 10,000 U/mL of penicillin G and […] of streptomycin). MCF-7 and Caco-2 cell lines were both cultured using Dulbecco’s Modified Eagle Medium (DMEM). However, the medium for MCF-7 cells was complemented with 10% of inactivated FBS and 1% of antibiotic/antimycotic mixture (Ab; 10,000 U/mL of penicillin G, […] of streptomycin and 25 µg/mL of amphotericin B), and the medium for Caco-2 cells was supplemented with 20% of inactivated FBS and 1% of Sp. Finally, RPMI medium supplemented with 10% FBS, 2 mM of L-glutamine, 10 mM of 4-(2-hydroxyethyl)-1-piperazineethanesulfonic acid (HEPES), 1 mM of sodium pyruvate, and 1% of Ab was used to culture NHDF cells. The culture media were renewed every two to three days until near confluence was achieved. Then, cells were detached using a solution of 0.125 g/L of trypsin and 0.02 g/L of ethylenediaminetetracetic acid (EDTA), counted by the trypan blue method, resuspended, and adequately seeded to continue the culture in 75 cm^2 flasks or for the experiments described below. All manipulations were performed in a Labculture Class II A2 Biological Safety Cabinet.
(§3) After trypsinization, cells were seeded in 96-well culture plates (100 µL; 2 × 10^4 cells/mL), and after 48 h (for adherence), they were incubated with the compounds under study in the absence of light for a duration of 72 h. Then, the medium was removed, and fresh incomplete culture medium (without FBS and Ab or Sp) and MTT solution [5 mg/mL in phosphate buffer saline (PBS)] were added to each well, followed by 4 h of incubation. After this, the medium containing MTT was removed and DMSO was added to dissolve formazan crystals. The absorbance of each well at 570 nm was determined using a microplate spectrophotometer Bio-Rad (Hercules, CA, USA) xMark. Untreated cells were considered the negative control, and 5-FU, a clinically used drug, was considered the positive control. For data analysis, the relative cell proliferation relative to the negative control cells was calculated. For each cell viability study, at least two independent assays in quadruplicate were performed. Increasing concentrations of the compounds between 0.001 and 100 μM were used to determine the IC50 values.

Caco-2 cells = experiment: Apoptosis (sub-G1 events) by PI staining and flow cytometry; format: cell-based, human; conditions: 72 h
Experimental: Given that apoptosis is a common programmed mechanism regulating cell death, characterized by DNA fragmentation and an increase in sub-G1 events, we employed the method described by Riccardi and Nicolleti to assess potential apoptosis induction using flow cytometry. Cyanine dyes 5 and 10 were tested at concentrations of 1 µM and 10 µM, respectively. As positive controls for apoptosis, 600 mM sorbitol and 10 µM 5-FU were used, with untreated cells serving as the negative control. […] In contrast, dye 10 induced a slight increase in apoptosis, reaching 1.7%. […] Apoptotic bodies were more evident in cells treated with dye 5 compared to dye 10, which is further supported by the slightly higher apoptosis induction in this assay.
Apoptosis (sub-G1 events) and cell cycle distribution were evaluated by propidium iodide (PI) staining and flow cytometry, as described by Riccardi and Nicolleti. […] Untreated cells were used as the negative control, and sorbitol and 5-FU were used as positive controls. After incubation, the supernatant was collected in a centrifuge tube, cells were washed with PBS, trypsinized and wells were once again washed with PBS. This cell suspension was maintained on ice, centrifugated at 300 g for 5 min, and then the pellet was resuspended in 0.5 mL of PBS. Cells were fixed by adding 4.5 mL of 70% ethanol cooled at −20 °C on ice and were stored at −20 °C for a period ranging from one to a few days. On the day of flow cytometry analysis, PBS was added to the fixed cell tubes, followed by centrifugation and removal of the supernatant. The pellet was resuspended in 0.5 mL of PBS and 0.5 mL of DNA extraction solution (192 mL of 0.2 M sodium phosphate and 8 mL of […], pH 7.8). After incubation for 5 min, the cells were once again centrifuged, the supernatant was removed, and the pellet was resuspended in 0.3 mL of staining solution (20 µg/mL of PI and 0.2 mg/mL of DNase-free RNase in PBS). Using a FACSCalibur flow cytometer (Becton Dickinson, Franklin Lakes, NJ, USA) with a 488 nm laser line, a minimum of 20,000 events were acquired and recorded using the BD CellQuestTM Pro 4.0.2 software, and analyzed with FlowJo 10.5.3 software. To exclude debris and necrotic cells, events with a lower diameter (forward scatter; FCS) and PI fluorescence (FL3) than the hypodiploid apoptotic cells were eliminated (Figures S1 and S2). Two independent experiments were performed. A Student’s t-test was performed to evaluate the statistical significance of the results.

[4] = system: PC-3 prostate adenocarcinoma cells; experiment: MTT cell viability assay, PC-3; conditions: 72 h; for IC50 / viability at 10 µM: Homo sapiens; for viability at 10 µM: read-out: cell viability percentage in relation to control, PC-3; for SI PC-3 (selectivity index versus NHDF): PC-3 versus NHDF
Experimental: as §1, §2, §3

[5] = read-out: IC50 MCF-7, MCF-7, 72 h incubation, MTT
[6] = read-out: IC50 PC-3, PC-3, 72 h incubation, MTT

| Structure (SMILES) | IC50 [1] [µM] | viability at 72 h, 10 µM [2] [%] | IC50 ([3]; read-out: IC50 MCF-7) [µM] | viability at 10 µM [3] [%] | SI MCF-7 (selectivity index versus NHDF) [3] | apoptosis (sub-G1 events), % of cells (Caco-2 cells; Caco-2, 10 µM) [%] | IC50 ([4]; read-out: IC50 PC-3) [µM] | viability at 10 µM [4] [%] | SI PC-3 (selectivity index versus NHDF) [4] | IC50 [3, 5] [µM] | apoptosis (sub-G1 events), % of cells (Caco-2 cells; Caco-2, 1 µM) | IC50 [4, 6] [µM] |
| --- | --- | --- | --- | --- | --- | --- | --- | --- | --- | --- | --- | --- |
| O=c1[nH]cc(F)c(=O)[nH]1 [5-FU, 5-fluorouracil, reference compound] | 4.53 | 10.5 ± 0.74 | 2.12 | 25.3 ± 4.94 | 2.1 | 12.8 | 2.43 | 20.5 ± 2.3 | 1.9 | – | – | – |
| CN1C(=Cc2oc3ccccc3[n+]2C)C=Cc2ccccc21.Cc1ccc(S(=O)(=O)[O-])cc1 [Dye 5, 3-Methyl-2-((1-methylquinolin-2(1H)-ylidene)methyl)benzo[d]oxazol-3-ium 4-methylbenzenesulfonate] | 2.79 | 15.4 ± 1.82 | – | 6.34 ± 1.06 | 0.7 | – | – | 3.47 ± 0.95 | 1.9 | 3.83 | approximately 2.3% | 1.43 |
| CCN1C(=Cc2sc3cc([N+](=O)[O-])ccc3[n+]2CC)Sc2ccccc21.Cc1ccc(S(=O)(=O)[O-])cc1 [Dye 10, 3-Ethyl-2-((3-ethylbenzo[d]thiazol-2(3H)-ylidene)methyl)-6-nitrobenzo[d]thiazol-3-ium 4-methylbenzenesulfonate] | 22.4 | 34.3 ± 1.99 | – | 10.6 ± 6.44 | 1.7 | 1.7 | – | 14.4 ± 1.6 | 3.8 | 13.3 | – | 5.93 |
